From ChEMBL document CHEMBL1201862, “PubChem BioAssay data set” (2004)
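96-well plates; 48 h exposure; 5 concentrations. Endpoints by linear interpolation between flanking doses. Not reached: highest tested concentration assigned. The concentration for 50% growth inhibition is given as GI50.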 The source made the active and inactive calls. No stated cut-off is given here; in the data, active = GI50 up to about 1.1 µM and inactive = higher.

Legend:
Assay in all cases: NCI anticancer screen, dose series, 48 h
HCT-15 = system: HCT-15
MOLT-4 = system: MOLT-4
BT-549 = system: BT-549
EKVX = system: EKVX
Malme-3M = system: Malme-3M
OVCAR-3 = system: OVCAR-3
SNB-19 = system: SNB-19
TK-10 = system: TK-10

Structure (SMILES)	GI50 (HCT-15) [µM]	GI50 (MOLT-4)	GI50 (BT-549)	GI50 (EKVX)	GI50 (Malme-3M)	GI50 (OVCAR-3)	GI50 (SNB-19)	GI50 (TK-10)
C=C1C(C)C2C(Cc3ccccc3)NC(=O)C23C(OC(C)=O)C=CC(C)(O)C(=O)C(C)C/C=C/C3C1O (stereo not drawn)	5.55	15.1 µM (inactive)						
C=C1C(=O)O[C@H]2/C=C(/C)C3=CC(=O)[C@@](C)(C[C@@H](OC(=O)/C(C)=C\C)C12)O3 (stereo partly drawn)			1.21 µM (inactive)	1.29 µM (inactive)	387 nM (active)	769 nM (active)	13.2 µM (inactive)	649 nM (active)
